Laboratory results as given in ChEMBL document CHEMBL5532691, “Anti-cancer activity and mechanism of flurbiprofen organoselenium compound RY-1-92 in non-small cell lung cancer” (RSC Med Chem, 2024).

Key:
A549 [1] = assay: Antiproliferative activity against human A549 cells assessed as inhibition of cell growth incubated for 48 hrs by MTT assay; assay type: functional, cell-based
NCI-H460 [2] = assay: Antiproliferative activity against human NCI-H460 cells assessed as inhibition of cell growth incubated for 48 hrs by MTT assay; assay type: functional, cell-based
BEAS-2B = assay: Cytotoxicity against human BEAS-2B cells assessed as reduction in cell viability at 3 to 300 uM measured after 48 hrs by MTT assay; assay type: toxicity, cell-based; details: dose 3-300 µM
A549 [3] = assay: Induction of cell cycle arrest in human A549 cells assessed as accumulation of cells as G1 phase at 10 uM measured after 24 hrs by propidium iodide staining based flow cytometry analysis (reference value: 71.74%); assay type: functional
A549 [4] = assay: Induction of cell cycle arrest in human A549 cells assessed as accumulation of cells as G2 phase at 10 uM measured after 24 hrs by propidium iodide staining based flow cytometry analysis (reference value: 8.69%); assay type: functional
A549 [5] = assay: Induction of cell cycle arrest in human A549 cells assessed as accumulation of cells as S phase at 10 uM measured after 24 hrs by propidium iodide staining based flow cytometry analysis (reference value: 19.57%); assay type: functional
A549 [6] = assay: Induction of cell cycle arrest in human A549 cells assessed as accumulation of cells as G1 phase at 30 uM measured after 24 hrs by propidium iodide staining based flow cytometry analysis (reference value: 71.74%); assay type: functional
A549 [7] = assay: Induction of cell cycle arrest in human A549 cells assessed as accumulation of cells as G2 phase at 30 uM measured after 24 hrs by propidium iodide staining based flow cytometry analysis (reference value: 8.69%); assay type: functional
A549 [8] = assay: Induction of cell cycle arrest in human A549 cells assessed as accumulation of cells as S phase at 30 uM measured after 24 hrs by propidium iodide staining based flow cytometry analysis (reference value: 19.57%); assay type: functional
NCI-H460 [9] = assay: Induction of cell cycle arrest in human NCI-H460 cells assessed as accumulation of cells as G1 phase at 10 uM measured after 24 hrs by propidium iodide staining based flow cytometry analysis (Rvb =84.54%); assay type: functional
NCI-H460 [10] = assay: Induction of cell cycle arrest in human NCI-H460 cells assessed as accumulation of cells as G2 phase at 10 uM measured after 24 hrs by propidium iodide staining based flow cytometry analysis (reference value: 8.37%); assay type: functional
NCI-H460 [11] = assay: Induction of cell cycle arrest in human NCI-H460 cells assessed as accumulation of cells as S phase at 10 uM measured after 24 hrs by propidium iodide staining based flow cytometry analysis (reference value: 7.09%); assay type: functional
NCI-H460 [12] = assay: Induction of cell cycle arrest in human NCI-H460 cells assessed as accumulation of cells as G1 phase at 30 uM measured after 24 hrs by propidium iodide staining based flow cytometry analysis (reference value: 84.54%); assay type: functional
NCI-H460 [13] = assay: Induction of cell cycle arrest in human NCI-H460 cells assessed as accumulation of cells as G2 phase at 30 uM measured after 24 hrs by propidium iodide staining based flow cytometry analysis (reference value: 8.37%); assay type: functional
NCI-H460 [14] = assay: Induction of cell cycle arrest in human NCI-H460 cells assessed as accumulation of cells as S phase at 30 uM measured after 24 hrs by propidium iodide staining based flow cytometry analysis (reference value: 7.09%); assay type: functional
A549 [15] = assay: Induction of apoptosis in human A549 cells assessed as viable cells at 10 uM measured after 48 hrs by annexin V-FITC/PI staining based flow cytometry analysis (reference value: 80.26%); assay type: functional; details: read-out: Activity
A549 [16] = assay: Induction of apoptosis in human A549 cells assessed as early apoptotic cells at 10 uM measured after 48 hrs by annexin V-FITC/PI staining based flow cytometry analysis (reference value: 0.59%); assay type: functional
A549 [17] = assay: Induction of apoptosis in human A549 cells assessed as late apoptotic cells at 10 uM measured after 48 hrs by annexin V-FITC/PI staining based flow cytometry analysis (reference value: 15.12%); assay type: functional
A549 [18] = assay: Induction of apoptosis in human A549 cells assessed as necrotic cells at 10 uM measured after 48 hrs by annexin V-FITC/PI staining based flow cytometry analysis (reference value: 4.03%); assay type: functional
A549 [19] = assay: Induction of apoptosis in human A549 cells assessed as viable cells at 30 uM measured after 48 hrs by annexin V-FITC/PI staining based flow cytometry analysis (reference value: 80.26%); assay type: functional; details: read-out: Activity
A549 [20] = assay: Induction of apoptosis in human A549 cells assessed as early apoptotic cells at 30 uM measured after 48 hrs by annexin V-FITC/PI staining based flow cytometry analysis (reference value: 0.59%); assay type: functional
A549 [21] = assay: Induction of apoptosis in human A549 cells assessed as late apoptotic cells at 30 uM measured after 48 hrs by annexin V-FITC/PI staining based flow cytometry analysis (reference value: 15.12%); assay type: functional
A549 [22] = assay: Induction of apoptosis in human A549 cells assessed as necrotic cells at 30 uM measured after 48 hrs by annexin V-FITC/PI staining based flow cytometry analysis (reference value: 4.03%); assay type: functional
NCI-H460 [23] = assay: Induction of apoptosis in human NCI-H460 cells assessed as viable cells at 10 uM measured after 48 hrs by annexin V-FITC/PI staining based flow cytometry analysis (reference value: 91.81%); assay type: functional; details: read-out: Activity
NCI-H460 [24] = assay: Induction of apoptosis in human NCI-H460 cells assessed as early apoptotic cells at 10 uM measured after 48 hrs by annexin V-FITC/PI staining based flow cytometry analysis (reference value: 0.32%); assay type: functional
NCI-H460 [25] = assay: Induction of apoptosis in human NCI-H460 cells assessed as late apoptotic cells at 10 uM measured after 48 hrs by annexin V-FITC/PI staining based flow cytometry analysis (reference value: 5.41%); assay type: functional
NCI-H460 [26] = assay: Induction of apoptosis in human NCI-H460 cells assessed as necrotic cells at 10 uM measured after 48 hrs by annexin V-FITC/PI staining based flow cytometry analysis (reference value: 2.47%); assay type: functional
NCI-H460 [27] = assay: Induction of apoptosis in human NCI-H460 cells assessed as viable cells at 30 uM measured after 48 hrs by annexin V-FITC/PI staining based flow cytometry analysis (reference value: 91.81%); assay type: functional; details: read-out: Activity
NCI-H460 [28] = assay: Induction of apoptosis in human NCI-H460 cells assessed as early apoptotic cells at 30 uM measured after 48 hrs by annexin V-FITC/PI staining based flow cytometry analysis (reference value: 0.32%); assay type: functional

**Q.** Which IC50 (A549 [1]; A549, 48 h) does the source give for `CC(C(=O)NCCC[Se]C(F)(F)F)c1ccc(-c2ccccc2)c(F)c1` (stereo unspecified) here?
**A.** 41.9 µM

**Q.** And the Activity (A549 [1]; dose 3-300 µM)?
**A.** Dose-Dependent Effect

**Q.** And the IC50 (NCI-H460 [2]; NCI-H460, 48 h)?
**A.** 78.2 µM

**Q.** And the Activity (NCI-H460 [2]; dose 3-300 µM)?
**A.** Dose-Dependent Effect

**Q.** And the Activity (BEAS-2B)?
**A.** Toxic

**Q.** What about the Activity (A549 [3]) of the same compound?
**A.** 76.88%

**Q.** And the Activity (A549 [4])?
**A.** 9.29%

**Q.** And the Activity (A549 [5])?
**A.** 13.83%

**Q.** And the Activity (A549 [6])?
**A.** 7.45%

**Q.** What about the Activity (A549 [7]) of the same compound?
**A.** 39.92%

**Q.** What about the Activity (A549 [8]) of the same compound?
**A.** 52.63%

**Q.** And the Activity (NCI-H460 [9])?
**A.** 78.71%

**Q.** And the Activity (NCI-H460 [10])?
**A.** 10.69%

**Q.** What about the Activity (NCI-H460 [11]) of the same compound?
**A.** 10.6%

**Q.** What about the Activity (NCI-H460 [12]) of the same compound?
**A.** 5.73%

**Q.** What about the Activity (NCI-H460 [13]) of the same compound?
**A.** 83.13%

**Q.** And the Activity (NCI-H460 [14])?
**A.** 11.14%

**Q.** What about the viability at 10 µM (A549 [15]) of the same compound?
**A.** 74.6%

**Q.** What about the Activity (A549 [16]) of the same compound?
**A.** 0.53%

**Q.** And the Activity (A549 [17])?
**A.** 20.25%

**Q.** And the Activity (A549 [18])?
**A.** 3.99%

**Q.** And the viability at 30 µM (A549 [19])?
**A.** 55%

**Q.** What about the Activity (A549 [20]) of the same compound?
**A.** 1.13%

**Q.** What about the Activity (A549 [21]) of the same compound?
**A.** 35.06%

**Q.** And the Activity (A549 [22])?
**A.** 8.86%

**Q.** What about the viability at 10 µM (NCI-H460 [23]) of the same compound?
**A.** 91%

**Q.** What about the Activity (NCI-H460 [24]) of the same compound?
**A.** 0.36%

**Q.** And the Activity (NCI-H460 [25])?
**A.** 6.97%

**Q.** And the Activity (NCI-H460 [26])?
**A.** 1.67%

**Q.** What about the viability at 30 µM (NCI-H460 [27]) of the same compound?
**A.** 74%

**Q.** And the Activity (NCI-H460 [28])?
**A.** 1.97%
